Values quoted from earlier work in patent US20230416219A1, “R-MDMA CRYSTAL FORMS” (Mind Medicine, Inc., priority 2022, published 2023).

How the values were obtained:
[1] = molecular target: 5-HT2A receptors (Homo sapiens, UniProt P28223)
[2] = test system: parkinsonian animal model
[3] = in vivo
[4] = molecular target: DAT (Homo sapiens, UniProt Q01959)
[5] = molecular target: SERT (Homo sapiens, UniProt P31645)
Chain of SERT (P31645 whole entry, species assumed): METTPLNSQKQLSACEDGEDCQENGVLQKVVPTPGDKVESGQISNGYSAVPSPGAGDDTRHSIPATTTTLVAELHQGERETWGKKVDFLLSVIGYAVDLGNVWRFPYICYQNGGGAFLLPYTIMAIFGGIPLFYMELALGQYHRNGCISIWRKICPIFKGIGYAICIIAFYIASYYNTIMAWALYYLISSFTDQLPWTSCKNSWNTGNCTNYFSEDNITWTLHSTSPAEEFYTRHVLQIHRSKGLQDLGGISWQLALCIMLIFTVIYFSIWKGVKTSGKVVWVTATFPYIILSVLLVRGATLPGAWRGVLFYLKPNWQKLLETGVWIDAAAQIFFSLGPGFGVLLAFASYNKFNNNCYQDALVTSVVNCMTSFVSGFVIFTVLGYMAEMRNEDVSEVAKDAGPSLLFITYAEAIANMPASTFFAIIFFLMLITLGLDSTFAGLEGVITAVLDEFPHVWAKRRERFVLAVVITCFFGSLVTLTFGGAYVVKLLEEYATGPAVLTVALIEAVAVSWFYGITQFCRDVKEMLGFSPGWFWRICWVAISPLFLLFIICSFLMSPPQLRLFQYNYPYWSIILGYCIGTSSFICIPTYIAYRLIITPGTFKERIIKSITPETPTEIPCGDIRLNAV

Chain of 5-HT2A receptors (P28223 whole entry): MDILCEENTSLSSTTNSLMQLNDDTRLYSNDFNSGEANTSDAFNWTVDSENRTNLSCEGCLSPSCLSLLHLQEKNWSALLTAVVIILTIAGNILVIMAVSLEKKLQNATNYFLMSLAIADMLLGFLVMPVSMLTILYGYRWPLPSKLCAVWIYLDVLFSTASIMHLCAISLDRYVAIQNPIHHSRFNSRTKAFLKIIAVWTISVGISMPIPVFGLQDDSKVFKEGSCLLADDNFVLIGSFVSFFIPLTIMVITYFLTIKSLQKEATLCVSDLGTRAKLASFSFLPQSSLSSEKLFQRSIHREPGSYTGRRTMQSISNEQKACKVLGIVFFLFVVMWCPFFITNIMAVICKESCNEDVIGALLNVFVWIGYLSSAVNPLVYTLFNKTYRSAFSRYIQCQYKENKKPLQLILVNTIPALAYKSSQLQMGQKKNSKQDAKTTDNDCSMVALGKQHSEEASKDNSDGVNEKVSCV
Chain of DAT (Q01959 whole entry, species assumed): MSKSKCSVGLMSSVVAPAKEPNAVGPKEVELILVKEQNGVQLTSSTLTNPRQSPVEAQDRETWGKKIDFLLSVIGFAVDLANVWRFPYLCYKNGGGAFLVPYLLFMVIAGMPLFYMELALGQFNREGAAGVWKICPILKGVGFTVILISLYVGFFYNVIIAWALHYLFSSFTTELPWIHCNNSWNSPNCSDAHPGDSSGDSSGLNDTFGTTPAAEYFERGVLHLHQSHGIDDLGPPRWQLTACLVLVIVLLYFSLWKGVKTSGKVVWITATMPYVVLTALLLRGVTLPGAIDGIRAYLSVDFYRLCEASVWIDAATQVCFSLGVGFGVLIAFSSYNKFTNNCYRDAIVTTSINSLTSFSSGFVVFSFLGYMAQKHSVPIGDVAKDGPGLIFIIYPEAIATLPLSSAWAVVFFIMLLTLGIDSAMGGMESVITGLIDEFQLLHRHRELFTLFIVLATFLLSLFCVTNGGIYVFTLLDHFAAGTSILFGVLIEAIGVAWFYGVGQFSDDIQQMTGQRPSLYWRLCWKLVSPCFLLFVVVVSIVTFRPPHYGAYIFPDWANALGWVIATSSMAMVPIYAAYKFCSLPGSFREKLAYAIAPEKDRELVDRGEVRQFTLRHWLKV

Row | SMILES | selectivity for 5-HT2A receptors [1] | duration of good ON-time [2] | severity of peak-dose dyskinesia [2] | hyperthermia [3] | affinity for DAT [4] | total duration of ON-time [2] | affinity for SERT [5]
1 | CN[C@H](C)Cc1ccc2c(c1)OCO2 [R-MDMA] | selective compound for 5-HT2A receptors | increased | decreased | does not produce hyperthermia | – | – | –
2 | CN[C@@H](C)Cc1ccc2c(c1)OCO2 [S-MDMA] | – | – | exacerbated | – | moderate affinity | extended | high affinity
